These results are taken from patent publication US6469028B1, “Synthesis and use of retinoid compounds having negative hormone and/or anatgonist activities” (Allergan, Inc., priority 1995, dated 2002).

The structures appear in SMILES notation.

Assay [1] in a line: Example 3: recovery from preexisting retinoid toxicity (body weight). It counts as in vivo, mice. As for the experimental part: Groups of these same mice (n=5) were then treated topically either with vehicle or AGN 193109 in vehicle (4 ml/kg) daily for 3 consecutive days beginning on day 3. Mice were weighed on days 1-5 and on day 8. Body weights are expressed as the mean±SD. Means were compared statistically using an unpaired, two-tailed t-test. Differences were considered significant at P<0.05.

For another assay, the system named is guinea pigs. Briefly: Example 5: premature epiphyseal plate closure (bone toxicity). It counts as in vivo. Particulars: AGN 191183 0.06 mg/ml + AGN 193109 0.34 mg/ml (5-fold molar excess), osmotic pump, 14 days. The procedure:
The osmotic pumps are designed by the manufacturer to deliver ˜5 μl of solution per hour continuously for 14 days.
The animals were euthanized by carbon dioxide asphyxiation 14 days after implantation. The left tibia was removed and placed in 10% buffered formalin. The tibias were decalcified by exposure to a formic acid/formalin solution for 3-4 days, and paraffin sections were prepared. Sections were stained with hematoxylin and eosin by standard methods. The proximal tibial epiphyseal plate was examined and scored as closed or not closed. Epiphyseal plate closure is defined for this purpose as any interruption of the continuity of the epiphyseal growth plate cartilage, i.e., replacement by bone and/or fibroblastic tissue.

Assay [2] deals with T1, RAR-α and RXR-α with DR-5 RARE probe (Homo sapiens, UniProt P10276).
T1 construct: made in house; host or cells: reticulocyte lysate in vitro transcription-translation
T1 sequence (P10276 whole entry): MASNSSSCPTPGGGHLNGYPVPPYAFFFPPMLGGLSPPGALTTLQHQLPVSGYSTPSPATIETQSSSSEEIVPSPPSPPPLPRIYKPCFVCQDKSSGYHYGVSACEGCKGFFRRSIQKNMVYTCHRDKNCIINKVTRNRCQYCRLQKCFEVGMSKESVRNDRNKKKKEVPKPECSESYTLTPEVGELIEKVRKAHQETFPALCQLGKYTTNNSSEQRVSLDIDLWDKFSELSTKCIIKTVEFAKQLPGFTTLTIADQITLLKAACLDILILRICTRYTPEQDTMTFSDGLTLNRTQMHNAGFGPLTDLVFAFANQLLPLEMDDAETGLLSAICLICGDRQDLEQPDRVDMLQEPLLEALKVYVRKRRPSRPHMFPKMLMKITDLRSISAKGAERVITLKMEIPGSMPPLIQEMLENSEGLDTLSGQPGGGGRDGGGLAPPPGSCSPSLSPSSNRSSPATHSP
T1 sequence (P19793 whole entry partner): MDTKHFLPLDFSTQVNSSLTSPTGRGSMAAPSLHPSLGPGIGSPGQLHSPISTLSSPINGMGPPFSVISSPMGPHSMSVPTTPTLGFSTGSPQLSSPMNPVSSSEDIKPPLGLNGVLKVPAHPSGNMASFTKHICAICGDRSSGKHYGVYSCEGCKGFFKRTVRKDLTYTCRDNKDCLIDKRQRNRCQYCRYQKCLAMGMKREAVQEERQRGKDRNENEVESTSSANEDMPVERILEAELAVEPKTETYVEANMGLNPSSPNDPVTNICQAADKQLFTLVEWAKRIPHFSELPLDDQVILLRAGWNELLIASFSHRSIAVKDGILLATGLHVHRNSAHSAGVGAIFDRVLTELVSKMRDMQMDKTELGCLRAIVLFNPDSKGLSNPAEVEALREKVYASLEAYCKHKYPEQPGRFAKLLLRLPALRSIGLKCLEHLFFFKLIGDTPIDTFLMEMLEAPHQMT
Briefly: Example 9: gel shift analysis. The class given is biochemical. The settings on record: prebound with AGN 193109 (10^−6 M). From the text: In vitro translated RAR-α was produced essentially as described under Example 8, except that ^35S-labeled methoinine was omitted. In vitro translated RXR-α was similarly produced using a pBluescript(II)(SK)-based vector containing the RXR-α cDNA described by Mangelsdorf, et al. in Nature 345:224-229 (1990) as the template for generating in vitro transcripts. […] The binding mixture was electrophoresed on a non-denaturing polyacrylamide gel and autoradiographed according to standard laboratory procedures. A single retarded species appearing on the autoradiograph that was common to all the lanes on the gel represented an undefined probe-binding factor present in the reticulocyte lysate. Only the RAR/RXR combination gave rise to a retinoid receptor-specific retarded species. Neither RAR alone nor RXR alone bound the probe to produce this shifted species.

In the next assay the test system is rabbits. As to the kind of experiment: Example 24: rabbit model of proliferative vitreoretinopathy (PVR). It counts as in vivo.
In another assay the test system is ER-RXR-α. As to the kind of experiment: Example 11: ER-RXR-α alone, ERE-tk-Luc, CV-1 cells.
For assay [3], the target named is T2, RARβ (Homo sapiens, UniProt P10826).
T2 sequence (P10826 1-448 isoform P10826-2): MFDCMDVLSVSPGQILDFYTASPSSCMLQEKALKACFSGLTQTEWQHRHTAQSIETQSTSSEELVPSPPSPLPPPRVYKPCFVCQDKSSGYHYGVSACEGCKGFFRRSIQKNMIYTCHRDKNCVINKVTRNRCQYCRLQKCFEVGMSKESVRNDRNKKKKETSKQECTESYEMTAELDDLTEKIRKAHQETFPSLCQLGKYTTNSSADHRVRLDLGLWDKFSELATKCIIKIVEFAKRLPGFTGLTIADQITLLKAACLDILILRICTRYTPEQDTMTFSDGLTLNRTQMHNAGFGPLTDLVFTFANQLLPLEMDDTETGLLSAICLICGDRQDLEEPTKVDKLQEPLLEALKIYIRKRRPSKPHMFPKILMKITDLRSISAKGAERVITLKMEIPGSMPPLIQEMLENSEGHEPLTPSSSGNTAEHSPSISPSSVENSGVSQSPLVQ
Briefly: [3H]-ATRA displacement assay, baculovirus expressed receptor. The class given is binding. Details: made in house; host or cells: baculovirus expression system. Particulars: Table 11.

The target in the next assay is T3, RARγ (Homo sapiens, UniProt P13631).
T3 sequence (P13631 1-454): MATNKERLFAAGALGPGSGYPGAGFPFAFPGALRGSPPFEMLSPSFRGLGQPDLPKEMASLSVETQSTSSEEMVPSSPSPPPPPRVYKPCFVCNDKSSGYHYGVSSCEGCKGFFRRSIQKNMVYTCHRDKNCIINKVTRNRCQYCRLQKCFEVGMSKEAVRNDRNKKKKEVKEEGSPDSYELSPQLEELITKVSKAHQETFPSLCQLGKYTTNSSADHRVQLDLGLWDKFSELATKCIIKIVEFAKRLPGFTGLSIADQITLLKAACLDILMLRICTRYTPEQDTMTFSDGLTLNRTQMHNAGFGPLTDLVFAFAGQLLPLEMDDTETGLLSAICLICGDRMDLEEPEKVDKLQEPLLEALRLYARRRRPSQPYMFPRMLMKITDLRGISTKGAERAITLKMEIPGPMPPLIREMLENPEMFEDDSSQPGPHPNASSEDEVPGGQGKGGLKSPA
Briefly: Transactivation in CV-1 cells, ΔMTV-TREp-Luc reporter. Particulars: 10^−9 to 10^−6 M, 18 hours. It counts as cell-based. Details: expressed in transfected cells; host or cells: green monkey CV-1 cells.

Assay [4] has as its target T2, RARβ. As to the kind of experiment: Example 7: inhibition of RAR transactivation by ATRA, CV-1 cells. It counts as cell-based. Details: expressed in transfected cells; host or cells: green monkey CV-1 cells. The settings on record: equal doses of AGN 193109 and ATRA (10 nM ATRA). The procedure:
Eukaryotic expression vectors pRShRAR-α (Giguere et al. Nature 330:624 (1987)), pRShRAR-β (Benbrook et al. Nature 333:669 (1988)) and pRShRAR-γ (Ishikawa et al. Mol. Endocrinol. 4:837 (1990)) were cotransfected with the Δ-MTV-Luc reporter plasmid described by Hollenberg et al. (Cell 55:899.(1988)). […] Calcium phosphate transfections were carried out exactly as described in Example 6. […] Cell lysates and luciferase activity measurements were also performed as in Example 6.

[5] abbreviates: topical AGN 191183 0.13 mg/kg/d days 1-2, then topical AGN 193109 days 3-5, mean±SD.

In general, Kd refers to the free concentration of one partner at which half of the binding sites on the other are occupied at equilibrium, for simple one-to-one binding. On to `Cc1ccc(C2=CCC(C)(C)c3ccc(C#Cc4ccc(C(=O)O)cc4)cc32)cc1` [Compound 60, 4-[(5,6-dihydro-5,5-dimethyl-8-(4-methylphenyl)-2-naphthalenyl)ethynyl]benzoic acid], for which the “body weight relative to vehicle treatment” value in assay [1] (after AGN 191183-induced weight loss, t-test, P<0.05) was “significantly increased body weight relative to vehicle treatment on days 4 and 5”. In assay [1] (setting [5]), the “Body Weight (g) DAY 1” value was determined as 23.9 ± 1.0 g, the “Body Weight (g) DAY 2” value is reported as 23.5 ± 1.2 g, the “Body Weight (g) DAY 3” value amounted to 21.4 ± 0.6 g and the “Body Weight (g) DAY 4” value worked out at 22.2 ± 0.7 g. For the same compound, in assay [1] (setting [5]), the “Body Weight (g) DAY 5” value came out at 22.8 ± 0.8 g and the “Body Weight (g) DAY 8” value came out at 25.0 ± 1.1 g. For the same compound, the epiphyseal plate closure result in the assay with guinea pigs is recorded as “completely blocked AGN 191183-induced bone toxicity”. For the same compound, in assay [2], the “RAR/RXR retarded species on DR-5 RARE probe” value is listed as “did not diminish this interaction”. Further, in the assay with rabbits (AGN 193109 100 μg + retinoic acid 10 μg intravitreal), the “frequency and severity of tractional retinal detachment” value is “significantly reduced frequency and severity of retinal detachment”. Further, the “incidence and severity of retinal detachment” value in the assay with rabbits (second study, AGN 193109 100 μg + thyroid hormone 100 μg) is “significantly reduced incidence and severity of retinal detachment”. Also, in the assay with rabbits (second study, single agent 100 μg intravitreal), the “retinal detachment compared with control rabbits” value is reported as “does not inhibit retinal detachment”. For the same compound, the luciferase expression levels result with ER-RXR-α (cells transfected only with ER-RXR-α, AGN 193109 as high as 10^−6 M) is given as “approximately 8,000 rlu”. For the same compound, the luciferase activity entry in the assay with ER-RXR-α (reporter and chimeric receptor without RAR-γ-VP-16) was “did not exhibit any effect on luciferase activity”. Further, on RARβ [3], the dissociation constant Kd amounted to 2 nM. The “EC50 (nM) RAR-γ” value on RARγ is “No Activity”. At RARβ [4], the “inhibition of luciferase activity relative to ATRA alone” value is “greater than 50%”.
